Reference: PubChem BioAssay AID1963869 (Molecular Pharmacology Branch, DTP, NCI, 2024)

Test system: KRAS patient-derived spheroids with HUVEC/MSC, viability
Assay: Anticancer human tumor 323965-272-R-J2-PDC patient-derived pancreatic carcinoma cell line growth inhibition [KRAS2]
Conditions: for IC50: curve of first compound; for viability, T/C: stronger effect = lower value
In short: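 KRAS-mutant tumor cells were grown as spheroids with HUVEC endothelial cells and human MSCs as stroma. Targeted agents were tested alone and with KRAS pathway inhibitors. Doses started at or near clinical Cmax, or 10 microM, descending half-log.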

[1] = second compound 0.1 µM, first compound 0.000316 µM
[2] = second compound 0.1 µM, first compound 0.001 µM
[3] = second compound 0.1 µM, first compound 0.00316 µM
[4] = second compound 0.1 µM, first compound 0.01 µM
[5] = second compound 0.1 µM, first compound 0.0316 µM
[6] = second compound 0.316 µM, first compound 0.000316 µM
[7] = second compound 0.316 µM, first compound 0.001 µM
[8] = second compound 0.316 µM, first compound 0.00316 µM
[9] = second compound 0.316 µM, first compound 0.01 µM
[10] = second compound 0.316 µM, first compound 0.0316 µM
[11] = second compound 1 µM, first compound 0.000316 µM
[12] = second compound 1 µM, first compound 0.001 µM
[13] = second compound 1 µM, first compound 0.00316 µM
[14] = second compound 1 µM, first compound 0.01 µM
[15] = second compound 1 µM, first compound 0.0316 µM
[16] = second compound 3.16 µM, first compound 0.000316 µM
[17] = second compound 3.16 µM, first compound 0.001 µM
[18] = second compound 3.16 µM, first compound 0.00316 µM
[19] = second compound 3.16 µM, first compound 0.01 µM
[20] = second compound 3.16 µM, first compound 0.0316 µM
[21] = second compound 10 µM, first compound 0.000316 µM
[22] = second compound 10 µM, first compound 0.001 µM
[23] = second compound 10 µM, first compound 0.00316 µM
[24] = second compound 10 µM, first compound 0.01 µM
[25] = second compound 10 µM, first compound 0.0316 µM
[26] = second compound 0.1 µM, first compound 0.1 µM
[27] = second compound 0.316 µM, first compound 0.1 µM
[28] = second compound 1 µM, first compound 0.1 µM
[29] = second compound 3.16 µM, first compound 0.1 µM
[30] = second compound 10 µM, first compound 0.1 µM
[31] = second compound 0.1 µM, first compound 0.316 µM
[32] = second compound 0.1 µM, first compound 1 µM
[33] = second compound 0.1 µM, first compound 3.16 µM
[34] = second compound 0.1 µM, first compound 10 µM
[35] = second compound 0.316 µM, first compound 0.316 µM
[36] = second compound 0.316 µM, first compound 1 µM
[37] = second compound 0.316 µM, first compound 3.16 µM
[38] = second compound 0.316 µM, first compound 10 µM
[39] = second compound 1 µM, first compound 0.316 µM
[40] = second compound 1 µM, first compound 1 µM
[41] = second compound 1 µM, first compound 3.16 µM
[42] = second compound 1 µM, first compound 10 µM
[43] = second compound 3.16 µM, first compound 0.316 µM
[44] = second compound 3.16 µM, first compound 1 µM
[45] = second compound 3.16 µM, first compound 3.16 µM
[46] = second compound 3.16 µM, first compound 10 µM
[47] = second compound 10 µM, first compound 0.316 µM
[48] = second compound 10 µM, first compound 1 µM
[49] = second compound 10 µM, first compound 3.16 µM
[50] = second compound 10 µM, first compound 10 µM
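Also: spheroids exposed to agents for 7 days.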
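For viability, T/C in this document: 100% = DMSO vehicle control viability.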

CC(=O)Nc1cccc(-n2c(=O)n(C3CC3)c(=O)c3c(Nc4ccc(I)cc4F)n(C)c(=O)c(C)c32)c1 + COc1cc2nc(C)nc(NC(C)c3cc(N)cc(C(F)(F)F)c3)c2cc1OC1CCOC1
IC50 (second compound 0.1 µM): 0.0016 µM
IC50 (second compound 0.316 µM): 0.000949 µM
IC50 (second compound 1 µM): 0.000713 µM
IC50 (second compound 3.16 µM): 0.000703 µM
IC50 (second compound 10 µM): 0.00109 µM
viability, T/C (second compound 0.1 µM, first compound 0.0001 µM): 84.1%
viability, T/C [1]: 67.3%
viability, T/C [2]: 54.5%
viability, T/C [3]: 43.7%
viability, T/C [4]: 32.6%
viability, T/C [5]: 23.7%
viability, T/C (second compound 0.316 µM, first compound 0.0001 µM): 67.8%
viability, T/C [6]: 59.6%
viability, T/C [7]: 48.9%
viability, T/C [8]: 39.6%
viability, T/C [9]: 31.9%
viability, T/C [10]: 22%
viability, T/C (second compound 1 µM, first compound 0.0001 µM): 73.5%
viability, T/C [11]: 60.4%
viability, T/C [12]: 43.5%
viability, T/C [13]: 37.4%
viability, T/C [14]: 28.5%
viability, T/C [15]: 20.8%
viability, T/C (second compound 3.16 µM, first compound 0.0001 µM): 73%
viability, T/C [16]: 57.9%
viability, T/C [17]: 44.6%
viability, T/C [18]: 36.3%
viability, T/C [19]: 28.7%
viability, T/C [20]: 18.4%
viability, T/C (second compound 10 µM, first compound 0.0001 µM): 80.7%
viability, T/C [21]: 68.2%
viability, T/C [22]: 49.2%
viability, T/C [23]: 36.3%
viability, T/C [24]: 26.1%
viability, T/C [25]: 12.7%

CC(C)n1nc(-c2ccc3oc(N)nc3c2)c2c(N)ncnc21 + COc1cc2nc(C)nc(NC(C)c3cc(N)cc(C(F)(F)F)c3)c2cc1OC1CCOC1
IC50 (second compound 0.1 µM): 0.00183 µM
IC50 (second compound 0.316 µM): 0.000955 µM
IC50 (second compound 1 µM): 0.000736 µM
IC50 (second compound 3.16 µM): 0.000769 µM
IC50 (second compound 10 µM): 0.00141 µM
viability, T/C [1]: 67.1%
viability, T/C [2]: 60.1%
viability, T/C [3]: 40.8%
viability, T/C [4]: 26.4%
viability, T/C [5]: 19%
viability, T/C [26]: 14.5%
viability, T/C [6]: 64.5%
viability, T/C [7]: 48.2%
viability, T/C [8]: 37.1%
viability, T/C [9]: 23.8%
viability, T/C [10]: 17.4%
viability, T/C [27]: 15.7%
viability, T/C [11]: 58.1%
viability, T/C [12]: 47.6%
viability, T/C [13]: 33.1%
viability, T/C [14]: 24.8%
viability, T/C [15]: 16.7%
viability, T/C [28]: 14%
viability, T/C [16]: 54.4%
viability, T/C [17]: 49.4%
viability, T/C [18]: 30.2%
viability, T/C [19]: 17.7%
viability, T/C [20]: 12.9%
viability, T/C [29]: 11.8%
viability, T/C [21]: 58.5%
viability, T/C [22]: 60.2%
viability, T/C [23]: 32.3%
viability, T/C [24]: 18.4%
viability, T/C [25]: 9.07%
viability, T/C [30]: 8.86%

CC1(C)CCC(CN2CCN(c3ccc(C(=O)NS(=O)(=O)c4ccc(NCC5CCOCC5)c([N+](=O)[O-])c4)c(Oc4cnc5[nH]ccc5c4)c3)CC2)=C(c2ccc(Cl)cc2)C1 + COc1cc2nc(C)nc(NC(C)c3cc(N)cc(C(F)(F)F)c3)c2cc1OC1CCOC1
IC50 (second compound 0.1 µM): 1.52 µM
IC50 (second compound 0.316 µM): 1.57 µM
IC50 (second compound 1 µM): 1.29 µM
IC50 (second compound 3.16 µM): 1.34 µM
IC50 (second compound 10 µM): 0.591 µM
viability, T/C [5]: 76.6%
viability, T/C [26]: 80.4%
viability, T/C [31]: 67.8%
viability, T/C [32]: 72.2%
viability, T/C [33]: 11.2%
viability, T/C [34]: 2.78%
viability, T/C [10]: 67.7%
viability, T/C [27]: 77.3%
viability, T/C [35]: 75.2%
viability, T/C [36]: 71.5%
viability, T/C [37]: 16.8%
viability, T/C [38]: 3.87%
viability, T/C [15]: 76.2%
viability, T/C [28]: 84.2%
viability, T/C [39]: 84.3%
viability, T/C [40]: 60.3%
viability, T/C [41]: 12.5%
viability, T/C [42]: 2.67%
viability, T/C [20]: 87.4%
viability, T/C [29]: 80.6%
viability, T/C [43]: 84.7%
viability, T/C [44]: 65.1%
viability, T/C [45]: 6.04%
viability, T/C [46]: 2.28%
viability, T/C [25]: 80.7%
viability, T/C [30]: 79.9%
viability, T/C [47]: 61.1%
viability, T/C [48]: 41.6%
viability, T/C [49]: 3.41%
viability, T/C [50]: 1.41%

COC(=O)c1ccc2c(C(=Nc3ccc(N(C)C(=O)CN4CCN(C)CC4)cc3)c3ccccc3)c(O)[nH]c2c1 + COc1cc2nc(C)nc(NC(C)c3cc(N)cc(C(F)(F)F)c3)c2cc1OC1CCOC1
IC50 (second compound 0.1 µM): > 10 µM
IC50 (second compound 0.316 µM): > 10 µM
IC50 (second compound 1 µM): > 10 µM
IC50 (second compound 3.16 µM): > 10 µM
IC50 (second compound 10 µM): > 10 µM
viability, T/C [5]: 92.9%
viability, T/C [26]: 102%
viability, T/C [31]: 102%
viability, T/C [32]: 106%
viability, T/C [33]: 92.6%
viability, T/C [34]: 86%
viability, T/C [10]: 89.3%
viability, T/C [27]: 81%
viability, T/C [35]: 84.1%
viability, T/C [36]: 78.8%
viability, T/C [37]: 78.1%
viability, T/C [38]: 74.6%
viability, T/C [15]: 82.6%
viability, T/C [28]: 73.2%
viability, T/C [39]: 76.8%
viability, T/C [40]: 74.6%
viability, T/C [41]: 70.8%
viability, T/C [42]: 68.9%
viability, T/C [20]: 77.3%
viability, T/C [29]: 77.6%
viability, T/C [43]: 75.6%
viability, T/C [44]: 81.5%
viability, T/C [45]: 79.3%
viability, T/C [46]: 75.7%
viability, T/C [25]: 90.8%
viability, T/C [30]: 86%
viability, T/C [47]: 77.4%
viability, T/C [48]: 72.8%
viability, T/C [49]: 77.8%
viability, T/C [50]: 69.7%

COc1cc(Nc2ncc3c(n2)-c2ccc(Cl)cc2C(c2c(F)cccc2OC)=NC3)ccc1C(=O)O + COc1cc2nc(C)nc(NC(C)c3cc(N)cc(C(F)(F)F)c3)c2cc1OC1CCOC1
IC50 (second compound 0.1 µM): 0.0924 µM
IC50 (second compound 0.316 µM): 0.0735 µM
IC50 (second compound 1 µM): < 0.0316 µM
IC50 (second compound 3.16 µM): < 0.0316 µM
IC50 (second compound 10 µM): < 0.0316 µM
viability, T/C [5]: 76.5%
viability, T/C [26]: 47.3%
viability, T/C [31]: 35.6%
viability, T/C [32]: 44.1%
viability, T/C [33]: 53.4%
viability, T/C [34]: 59.1%
viability, T/C [10]: 66.2%
viability, T/C [27]: 45.3%
viability, T/C [35]: 35.7%
viability, T/C [36]: 37.5%
viability, T/C [37]: 51.5%
viability, T/C [38]: 58.5%
viability, T/C [15]: 62.2%
viability, T/C [28]: 39.6%
viability, T/C [39]: 33%
viability, T/C [40]: 38.8%
viability, T/C [41]: 44.9%
viability, T/C [42]: 51.2%
viability, T/C [20]: 56.8%
viability, T/C [29]: 34.4%
viability, T/C [43]: 28.4%
viability, T/C [44]: 37.8%
viability, T/C [45]: 44.3%
viability, T/C [46]: 51.1%
viability, T/C [25]: 63.4%
viability, T/C [30]: 20.3%
viability, T/C [47]: 24%
viability, T/C [48]: 41.6%
viability, T/C [49]: 42.8%
viability, T/C [50]: 36.9%

COc1cc2nccc(Oc3ccc(NC(=O)C4(C(=O)Nc5ccc(F)cc5)CC4)cc3)c2cc1OC + COc1cc2nc(C)nc(NC(C)c3cc(N)cc(C(F)(F)F)c3)c2cc1OC1CCOC1
IC50 (second compound 0.1 µM): > 10 µM
IC50 (second compound 0.316 µM): > 10 µM
IC50 (second compound 1 µM): > 10 µM
IC50 (second compound 3.16 µM): 9.98 µM
IC50 (second compound 10 µM): 3.89 µM
viability, T/C [5]: 86.5%
viability, T/C [26]: 86.5%
viability, T/C [31]: 84.1%
viability, T/C [32]: 86.5%
viability, T/C [33]: 75.7%
viability, T/C [34]: 86.2%
viability, T/C [10]: 76%
viability, T/C [27]: 85.7%
viability, T/C [35]: 88%
viability, T/C [36]: 82.2%
viability, T/C [37]: 84.7%
viability, T/C [38]: 75.2%
viability, T/C [15]: 84.4%
viability, T/C [28]: 79.8%
viability, T/C [39]: 84.5%
viability, T/C [40]: 82.8%
viability, T/C [41]: 74.1%
viability, T/C [42]: 66.3%
viability, T/C [20]: 87.1%
viability, T/C [29]: 85.3%
viability, T/C [43]: 95.3%
viability, T/C [44]: 89.6%
viability, T/C [45]: 79%
viability, T/C [46]: 49.5%
viability, T/C [25]: 85.4%
viability, T/C [30]: 93.6%
viability, T/C [47]: 84.9%
viability, T/C [48]: 84.3%
viability, T/C [49]: 59.1%
viability, T/C [50]: 7.87%
